Assay results reported in patent publication US10168342B2, “Lipid probes and uses thereof” (THE SCRIPPS RESEARCH INSTITUTE, priority 2015, dated 2019).
Where two headings read alike, the source gives them in different places.

Experiments:
[1] = biological target: AEA-DA lipid probe targets in Neuro2a cells (Mus musculus, UniProt Q91VM5); conditions: protein Rbmxl1, Neuro2a cells
[2] = biological target: T1, AEA-DA lipid probe targets in Neuro2a cells (Mus musculus, UniProt Q8C0K5)
T1 sequence (Q8C0K5 1-332): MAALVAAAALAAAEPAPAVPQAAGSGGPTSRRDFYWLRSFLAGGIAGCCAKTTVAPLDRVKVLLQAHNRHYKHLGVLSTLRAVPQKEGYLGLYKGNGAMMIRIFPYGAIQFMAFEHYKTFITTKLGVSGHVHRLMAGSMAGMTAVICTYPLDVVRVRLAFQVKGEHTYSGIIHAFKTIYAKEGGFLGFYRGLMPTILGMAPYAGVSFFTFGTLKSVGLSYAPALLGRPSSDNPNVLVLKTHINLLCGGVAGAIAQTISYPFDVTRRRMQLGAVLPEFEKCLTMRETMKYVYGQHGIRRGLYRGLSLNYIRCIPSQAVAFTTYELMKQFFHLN

[3] = test system: PGF2α-EA formation in PMA-stimulated A549 cells; experiment: Oxidative metabolism of AEA in A549 cells (prostamide formation); format: cell-based, human; conditions: MJN228, KML110 5 and 25 μM, others 25 μM, AEA 20 μM
Procedure: The media from the PMA-stimulated cells was removed and cells were washed with DPBS (2×3 mL) before adding freshly prepared media solutions containing vehicle or compound (2 mL/plate). After incubating for 30 min at 37° C., a solution of BHT-stabilized AEA (60 μM AEA; 60 μM BHT) in the same media was added to the cells (1.0 mL/plate) and incubated for 1 h. The media from the cells was then transferred to glass vials containing MS internal standards [PGE2-EA-d4 (25 pmol)], centrifuged (1,500×g, 5 min) to remove detached cells and then loaded onto pre-equilibrated reversed phase SPE cartridges (Phenomenex, Strata-X 33 μm, 60 mg/3 mL). After washing cartridges with 5% MeOH/H2O (3 mL), prostamides were eluted with MeOH (1.0 mL) and the eluent was concentrated under a stream of N2. Concentrated samples were stored at −80° C. until the day of analysis when they were reconstituted in Mobile Phase A [100 μL, 30% CH3CN in H2O (0.1% AcOH, 5.0 mM NH4OAc)].
Media extracts were analyzed by LC/MS/MS with LC separation performed on a Kinetex reversed phase C18 column (50×4.6 mm, 2.6 μm particle size, 100Å). Mobile phase A was composed of 30% (v/v) CH3CN in H2O and Mobile phase B was composed of 50% (v/v) CH3CN in i-PrOH. Both mobile phases also contained 0.1% AcOH and NH4OAc (5 mM) to facilitate ionization and LC separation. […]
MS analysis of prostamides was performed on an Agilent 6460 Triple Quadrupole LC/MS System with operating conditions as follows: gas temperature (300° C.); gas flow (9 L·min^−1); nebulizer (45 psi); sheath gas temperature (300° C.); sheath gas flow (12 L·min^−1); positive and negative capillary voltage (3.5 kV). Analysis was achieved using multiple reaction monitoring with precursor to product ion transitions, optimized collision energies (CE) as listed below and prostamide quantification was achieved by normalized of analyte peaks relative to a deuterated prostamide internal standard (PGE2-EA-d4) to account for differences in extraction efficiency. […]

[4] = biological target: T2, AEA-DA lipid probe targets in Neuro2a cells (Mus musculus, UniProt Q8VCX5); conditions: protein Micu1, Neuro2a cells
T2 sequence (Q8VCX5 34-477): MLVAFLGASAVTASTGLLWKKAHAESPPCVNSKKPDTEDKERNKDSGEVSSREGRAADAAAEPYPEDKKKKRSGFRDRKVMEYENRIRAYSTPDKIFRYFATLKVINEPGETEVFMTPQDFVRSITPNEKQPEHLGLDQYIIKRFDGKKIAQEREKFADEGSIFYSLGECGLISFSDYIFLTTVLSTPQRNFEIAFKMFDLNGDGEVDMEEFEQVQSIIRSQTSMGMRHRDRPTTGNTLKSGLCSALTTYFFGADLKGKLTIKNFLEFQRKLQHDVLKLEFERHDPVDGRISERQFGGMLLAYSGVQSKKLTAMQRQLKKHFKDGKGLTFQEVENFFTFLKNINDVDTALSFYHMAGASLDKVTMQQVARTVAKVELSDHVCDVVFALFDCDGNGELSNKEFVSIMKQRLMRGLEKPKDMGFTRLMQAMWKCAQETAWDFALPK

Sequence of AEA-DA lipid probe targets in Neuro2a cells (Mus musculus, UniProt Q91VM5) (Q91VM5 whole entry): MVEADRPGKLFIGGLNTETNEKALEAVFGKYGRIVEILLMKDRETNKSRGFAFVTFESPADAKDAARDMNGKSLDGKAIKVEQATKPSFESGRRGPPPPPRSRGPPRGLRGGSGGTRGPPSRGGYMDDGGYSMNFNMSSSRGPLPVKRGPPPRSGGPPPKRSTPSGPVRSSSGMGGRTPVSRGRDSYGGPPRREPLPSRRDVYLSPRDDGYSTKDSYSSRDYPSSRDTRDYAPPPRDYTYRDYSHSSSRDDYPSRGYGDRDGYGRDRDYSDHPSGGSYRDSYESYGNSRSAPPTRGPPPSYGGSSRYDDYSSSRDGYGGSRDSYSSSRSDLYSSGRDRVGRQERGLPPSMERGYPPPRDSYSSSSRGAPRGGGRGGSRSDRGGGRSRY

With CCCCC/C=C\C/C=C\C/C=C\C/C=C\CCCC(=O)NCCO [AEA, anandamide, reference compound] the “SILAC ratio (AEA-DA competition)” value ([1]; competitor 200 μM) was 1.0 and the “SILAC ratio Slc25a16” value ([2]; competitor 200 μM) was 1.5.
With CN1CCN(C(=O)c2c(-c3ccccc3)c3cc([N+](=O)[O-])ccc3n2C)CC1 [KML110, (1-Methyl-5-nitro-3-phenyl-1H-indol-2-yl)(4-methylpiperazin-1-yl)methanone] the “conversion of exogenous AEA to PGF2α-EA” value [3] was “suppress”.
With C=CCN(C)CCCCCCOc1ccc(C(=O)c2ccc(Br)cc2)c(F)c1 [Ro 48-8071, reference compound] the “SILAC ratio (AEA-DA competition)” value ([4]; competitor 25 μM) was 0.9.
For CN1CCN(C(=O)c2[nH]c3ccc([N+](=O)[O-])cc3c2-c2ccccc2)CC1 [MJN228, (4-Methylpiperazin-1-yl)(5-nitro-3-phenyl-1H-indol-2-yl)methanone], the “SILAC ratio (AEA-DA competition)” value ([4]; competitor 10 μM) was 1.2, the “SILAC ratio (AEA-DA competition)” value ([4]; competitor 25 μM) was 1.5 and the “SILAC ratio (AEA-DA competition)” value ([1]; competitor 10 μM) was 1.1. For the same compound, the “SILAC ratio (AEA-DA competition)” value ([1]; competitor 25 μM) was 1.2, the “SILAC ratio (AEA-DA competition)” value ([1]; competitor 100 μM) was 1.3 and the “SILAC ratio Slc25a16” value ([2]; competitor 10 μM) was 1.2. For the same compound, the “SILAC ratio Slc25a16” value ([2]; competitor 25 μM) was 1.1 and the “conversion of exogenous AEA to PGF2α-EA” value [3] was “suppress”.
